# What was measured:
# Enterococcus faecalis [1] = conditions: quality control range for Enterococcus faecalis ATCC 29212 (# 101); cited from earlier work
# Streptococcus pneumoniae = assay: MIC, broth microdilution (CLSI); type: cell-based; conditions: Streptococcus pneumoniae
# Description: (§1) The solvent for all of the compounds was deionized water (DIW), and all of the compounds dissolved in the solvent. The stock solutions were allowed to stand in DIW for one hour at room temperature prior to testing to allow time for auto-sterilization.
# (§2) The test organisms were originally received from clinical sources, or from the American Type Culture Collection. When received, the organisms were sub-cultured onto an appropriate agar medium. Following incubation, colonies were harvested from these plates and cell suspensions prepared and frozen at −80° C. On the day prior to assay, a frozen vial of each culture was thawed and the contents were streaked for isolation onto either Tryptic Soy Agar (Becton Dickinson, Sparks, Md.) or Tryptic Soy Agar (Enhanced Hemolysis; Becton Dickinson) supplemented with 5% sheep blood for streptococci. The agar plates were incubated overnight at 35° C. Staphylococcus aureus ATCC 29213 and Enterococcus faecalis ATCC 29212 were included as quality control isolates in the assay.
# (§3) The test medium for the broth microdilution testing was Mueller Hinton II broth (MHB II; BBL# 212322, Lot # 6024003, Becton Dickinson). The broth was prepared at 1.05× normal weight/volume to offset the 5% volume of the drug solution in the final test plates.
# For streptococci, lysed horse blood (Lot # H88621; Cleveland Scientific, Bath, Ohio) was added to the MHB II at a final concentration of 2%. […]
# (§4) MIC values were determined using a broth microdilution method as recommended by the Clinical and Laboratory Standards Institute (Clinical and Laboratory Standards Institute^a. Methods for Dilution Antimicrobial Susceptibility Tests for Bacteria That Grow Aerobically; Approved Standard-Seventh Edition. Clinical and Laboratory Standards Institute document M7-A7 [ISBN 1-56238-587-9]. Clinical and Laboratory Standards Institute, 940 West Valley Road, Suite 1400, Wayne, Pa. 19087-1898 USA, 2006). Automated liquid handlers (Multidrop 384, Labsystems, Helsinki, Finland; Biomek 2000 and Multimek 96, Beckman Coulter, Fullerton Calif.) were used to conduct serial dilutions and make liquid transfers.
# (§5) Wells of two standard 96-well microdilution plates (Falcon 3918; Becton Dickinson) were filled with 150 μL of […] using the Multidrop 384. These plates were used to prepare the drug “mother plates” that provided the serial drug dilutions for replicate “daughter plates”. The Biomek 2000 was used to transfer 150 μl of each stock solution from the wells of column 1 of a deep well plate to the corresponding wells in column 1 of the mother plate and to make eleven 2-fold serial dilutions in the mother plates. The wells of column 12 contained no drug and were the organism growth control wells. Each mother plate has the capacity to create a total of 12 daughter plates.
# (§6) The daughter plates were loaded with 180 μL of one of the media described above using the Multidrop 384. The wells of the daughter plates ultimately contained 180 μL of MHB II, 10 μL of drug solution, and 10 μL of bacterial inoculum prepared in broth appropriate to the test organism (1.05×). The daughter plates were prepared on the Multimek 96 instrument, which transferred 10 μL of drug solution from each well of the mother plate to each corresponding well of each daughter plate in a single step.
# Standardized inoculum of each organism was prepared following Clinical and Laboratory Standards Institute (Clinical and Laboratory Standards Institute^b. Performance Standards for Antimicrobial Susceptibility Testing; Sixteenth Informational Supplement. CLSI document M100-S16 [ISBN 1-56238-588-7]. Clinical and Laboratory Standards Institute, 940 West Valley Road, Suite 1400, Wayne, Pa. 19087-1898 USA, 2006) methods. The inoculum for each organism was dispensed into sterile reservoirs divided by length (Beckman Coulter), and the Biomek 2000 was used to inoculate the plates. […]
# Enterococcus faecalis [2] = assay: MIC, broth microdilution (CLSI); type: cell-based; conditions: Enterococcus faecalis
# Description: as §1, §2, §3
# (§7) CLSI guidelines recommend that Mueller-Hinton II broth be adjusted to contain 50 mg/L of Ca^++ ions for proper daptomycin MIC results. Since Mueller-Hinton II broth has already been adjusted by the manufacturer to contain approximately 25 mg/L of Ca^++ ions, an additional 25 mg/L of Ca^++ ions was adjusted with 10 mg/mL of CaCl2.2H2O (Lot# 084K0215; Sigma-Aldrich) added at a rate of 0.1 mL/L of broth, for each desired increment of 1 mg/L. This supplemented Mueller-Hinton II broth was used only in wells containing daptomycin.
# as §4, §5
# as §6, with “step. […]” for “step.”
# [3] = system: Staphylococcus epidermidis; assay: MIC, broth microdilution (CLSI); type: cell-based; conditions: Staphylococcus epidermidis
# Description: as §1, §2, §3, §7, §4, §5
# as §6, with “step. […]” for “step.”
# Staphylococcus aureus [4] = conditions: quality control range for Staphylococcus aureus ATCC 29213 (# 100); cited from earlier work
# Streptococcus pyogenes = assay: MIC, broth microdilution (CLSI); type: cell-based
# Description: as §1, §2, §3
# For streptococci, lysed horse blood (Lot # H88621; Cleveland Scientific, Bath, Ohio) was added to the MHB II at a final concentration of 2%.
# as §7, §4, §5
# as §6, with “step. […]” for “step.”
# Staphylococcus aureus [5] = assay: MIC, broth microdilution (CLSI); type: cell-based; conditions: Staphylococcus aureus
# Description: (§8) The stock solutions were allowed to stand in DIW for one hour at room temperature prior to testing to allow time for auto-sterilization.
# as §2, §3, §7, §4, §5, §6
# Enterococcus faecium = assay: MIC, broth microdilution (CLSI); type: cell-based; conditions: Enterococcus faecium
# Description: as §8, §2, §3, §7, §4, §5, §6
compound,measurement,setting,value
"CN[C@H](CC(C)C)C(=O)N[C@H]1C(=O)N[C@@H](CC(N)=O)C(=O)N[C@H]2C(=O)N[C@H]3C(=O)N[C@H](C(=O)N[C@H](C(=O)O)c4cc(O)cc(O)c4-c4cc3ccc4O)[C@H](O)c3ccc(c(Cl)c3)Oc3cc2cc(c3O[C@@H]2O[C@H](CO)[C@@H](O)[C@H](O)[C@H]2O[C@H]2C[C@](C)(N)[C@H](O)[C@H](C)O2)Oc2ccc(cc2Cl)[C@H]1O [Vancomycin, vancomycin]","MIC, CLSI Recommended Range",Enterococcus faecalis [1],1 to 4 µg/mL
same,MIC,"Streptococcus pneumoniae; Streptococcus pneumoniae Micromyx # 374, Wild type",0.5 µg/mL
same,MIC,"Streptococcus pneumoniae; Streptococcus pneumoniae Micromyx # 375, parC, gyrB",0.5 µg/mL
same,MIC,"Streptococcus pneumoniae; Streptococcus pneumoniae Micromyx # 376, parC, gyrA",0.25 µg/mL
same,MIC,"Streptococcus pneumoniae; Streptococcus pneumoniae Micromyx # 379, parC, gyrA, gyrB",0.5 µg/mL
same,MIC,"Streptococcus pneumoniae; Streptococcus pneumoniae Micromyx # 927, mef(A)",0.5 µg/mL
same,MIC,"Streptococcus pneumoniae; Streptococcus pneumoniae Micromyx # 928, erm(B)",0.5 µg/mL
same,MIC,"Enterococcus faecalis [2]; ATCC29212, Enterococcus faecalis Micromyx # 101, VSE, CLSI QC strain (ATCC 29212)",4 µg/mL
same,MIC,"Enterococcus faecalis [2]; Enterococcus faecalis Micromyx # 413, LZD^R from res. dev. or other",2 µg/mL
same,MIC,"Enterococcus faecalis [2]; Enterococcus faecalis Micromyx # 486, Van A",> 128 µg/mL
same,MIC,"Enterococcus faecalis [2]; Enterococcus faecalis Micromyx # 1088, Van B",128 µg/mL
same,MIC,[3],2 µg/mL
same,MIC,[3]; MRSE,4 µg/mL
same,"MIC, CLSI Recommended Range",Staphylococcus aureus [4],0.5 to 2 µg/mL
same,MIC,Streptococcus pyogenes; Streptococcus pyogenes,0.5 µg/mL
same,MIC,"Streptococcus pyogenes; Streptococcus pyogenes Micromyx # 942, macrolide^R",0.5 µg/mL
same,MIC,"Staphylococcus aureus [5]; ATCC 29213 / MSSA, Staphylococcus aureus Micromyx # 100, MSSA, CLSI QC strain (ATCC 29213)",2 µg/mL
same,MIC,"Staphylococcus aureus [5]; MRSA, Staphylococcus aureus Micromyx # 1004, MRSA, FA^R",1 µg/mL
same,MIC,"Staphylococcus aureus [5]; MRSA, Staphylococcus aureus Micromyx # 1730, Community-acquired MRSA",2 µg/mL
same,MIC,"Staphylococcus aureus [5]; MSSA, Staphylococcus aureus Micromyx # 1002, MSSA, macrolide^R",1 µg/mL
same,MIC,"Staphylococcus aureus [5]; Staphylococcus aureus Micromyx # 106, RA^R",1 µg/mL
same,MIC,"Staphylococcus aureus [5]; Staphylococcus aureus Micromyx # 1016, FA^R",1 µg/mL
same,MIC,"Staphylococcus aureus [5]; Staphylococcus aureus Micromyx # 1651, LZD^R clinical isolate",1 µg/mL
same,MIC,"Staphylococcus aureus [5]; Staphylococcus aureus Micromyx # 1727, GM^R",1 µg/mL
same,MIC,"Staphylococcus aureus [5]; Staphylococcus aureus Micromyx # 1731, CHL^R",1 µg/mL
same,MIC,"Staphylococcus aureus [5]; VISA, Staphylococcus aureus Micromyx # 1723, VISA",8 µg/mL
same,MIC,"Enterococcus faecium; Enterococcus faecium Micromyx # 750, Van^S",1 µg/mL
same,MIC,"Enterococcus faecium; Enterococcus faecium Micromyx # 752, Van A",> 128 µg/mL
same,MIC,"Enterococcus faecium; Enterococcus faecium Micromyx # 1120, Van B",32 µg/mL
same,MIC,"Enterococcus faecium; Enterococcus faecium Micromyx # 1721, DAP^R",> 128 µg/mL
